From US20030180735A1, “Screening method” (priority 1999, published 2003)
“Also recorded” adds a separate entry of the source.

How the values were obtained:
Type in all cases: cell-based
[1] = tested on: primary human neutrophils; assay: Neutrophil survival/viability by MTT assay
Experimental: primary human neutrophils are isolated and purified from peripheral blood of normal healthy individuals. Neutrophils are resuspended in serum containing culture medium together with various amounts of GM-CSF at a density of 2×10^6/ml, with 100 μl plated into a 96 well plate and cultured for 18 h at 37° C. After this time 10 μl of MTT (5 mg/ml) is added to the cultures and incubated for a further 4 h at 37° C. before solubilisation of the purple coloured formazan with acidic isopropanol. Optical densities are read at 570 nm using a plate reader.
A time course of GM-CSF additions was carried out to neutrophils in order to determine up to what stage GM-CSF can induce survival in neutrophils. primary human neutrophils are isolated and purified from peripheral blood of normal healthy individuals. Neutrophils are resuspended in serum containing culture medium at a concentration of 2×10^6/ml, with 100 μl/well plated into a 96 well plate and culture at 37° C. commenced. At the indicated time points GM-CSF (50U/ml) was added to the neutrophils and culture continued until 20 h post initiation of culture. After this time, 10 μl of MTT (5 mg/ml) was added to the cultures and incubated for a further 4 h at 37° C. before solubilisation of the purple coloured formazan with acidic isopropanol. Optical densities were read at 570 nm using a plate reader. […] However, if administration of the cytokine is delayed for 20 h post isolation, the protective effect is zero in 24 h cultures.
We performed timed additions of anti-GM-CSF antibody to neutrophils in order to determine how immediate the anti-apoptotic effects induced by GM-CSF occur. primary human neutrophils are isolated and purified from peripheral blood of normal healthy individuals. […] Optical densities are read at 570 nm using a plate reader. […]
In our system, cells are cultured in 96 well plates in 100 μl of culture medium and are treated in ways known to induce apoptosis. […] At the end of the incubation period the converted dye is solubilised with acidic-isopropanol (0.04N HCL. Absorbance of converted dye is measured at a wavelength of 570 nm.

[2] = tested on: HeLa cells; settings: agent plus cisplatin 10 μg/ml, overnight, crystal violet
Experimental: In our system, cells are cultured in 96 well plates in 100 μl of culture medium and are treated in ways known to induce apoptosis. Following an indicated period of time, 10 μl MTT stock solution (5 mg/mi) is added to each culture being assayed and incubated at 37° C. for 4 h. At the end of the incubation period the converted dye is solubilised with acidic-isopropanol (0.04N HCL. Absorbance of converted dye is measured at a wavelength of 570 nm.
The following example describes a method to analyse viability of adherent cells, such as HeLa, using chemical stain Crystal Violet. Adherent cells are cultured in the presence of known agents to induce/ modulate the apoptotic process. After a suitable period of time, supernatants are removed by inverting and flicking the plate. Wells are washed twice with PBS and remaining adherent cells are fixed with 100% EtOH and air-dried. To each well is added 100 μl of 1% aqueous Crystal Violet Solution (Sigma). Plates are then incubated at room temperature (RT) for 5 min before washing in tap water. Wells are solubilised in 33% acetic acid and optical density is measured at 570 nm using a plate reader.
HeLa cells are plated in full culture medium at a concentration of 2×10^4 cells/well of 96 well plate. […] Cells are cultured overnight at 37° C. before analysing for apoptosis using either MTT or crystal violet.
HeLa cells are plated in full culture medium at a concentration of 2×10^4 cells/well of 96 well plate. […] Cells are cultured overnight at 37° C. before analysing for apoptosis using crystal violet.
HeLa cells are plated into 96 well plate at a concentration of 2×10^4/well and allowed to adhere for 4 hours Culture medium is then replaced with fresh medium containing the indicated concentrations of TNFα together with 5 μg/ml cycloheximide. Cultures are maintained for a further 18 hours, before measuring apoptosis with crystal violet and reading @570 nm in a plate reader.
Cells are cultured for a further 18 h before staining the remaining adherent cells with crystal violet and measuring absorbance at 570 nm.

[3] = tested on: primary human neutrophils; assay: Neutrophil gene expression, Incyte LifeGrid microarray
Experimental: Primary human neutrophils are isolated and purified from peripheral blood of normal healthy individuals. Neutrophils are resuspended in serum containing culture medium together with GM-CSF (50U) at a concentration of 2×10^6/ml, and cultured for 0 h (control), 2 h, 4 h and 6 h at 37° C. After these times, total cellular RNA is extracted and this used as the starting material for analysis of gene expression changes.
Primary human neutrophils are isolated and purified from peripheral blood of normal healthy individuals. Neutrophils are resuspended in serum containing culture medium together with GM-CSF (50U) at a concentration of 2×10^6/ml, and cultured for 0 h (control), 2 h, 4 h and 6 h at 37° C. After these times, total cellular RNA is extracted and this used as the starting material for analysis of gene expression changes using the Incyte “LifeGrid” microarray. Following cluster analysis, a cluster of genes are identified that contained several genes involved in neutrophil survival and whose transcription is up—regulated upon GM-CSF treatment. This cluster, which included BcI2-A1 (a ‘known’ antiapoptotic neutrophil BCL2 family member) is termed the ‘survival’ cluster (See FIG. 14). Among these genes, one group that could be clearly identified are those genes whose protein products are involved in protecting the cell against an increased oxidative environment (FIG. 14). […] Since all these gene products are attenuators of the oxidative cellular response it is indicative that GM-CSF protects the cell by reducing the harmful effects of reactive oxygen species. The corollary therefore is that spontaneous apoptosis must be due to an uncontrolled oxidative environment within the cell. Furthermore, this reaffirms that the neutrophils response to reactive oxidative species is […] of the glutathione system.
Methodology is as described by manufacturer, for Human LifeGrid™ arrays. Essentially, total cellular RNA (1 μg to 20 μg) or polyA+ mRNA (100 ng to 5 μg) is incubated with an oligo (dT) primer. Primed RNA is reverse transcribed to first stand cDNA in a reaction containing M-MLV reverse transcriptase (RT; alternatively Superscript II is used (Life Sciences)), RT buffer, dNTPs and [α-^33P] dCTP (2000-4000 Ci/mmol) at 42° C. for 1 to 5 h.
Methodology is as described by manufacturer, for Human LifeGrid™ arrays.

[4] = GM-CSF (50U), vs control levels

| Molecule | effect on GM-CSF mediated survival ([1]; BSO 1 or 4 mM, GM-CSF 5 u/ml, 18 h) | HeLa cell sensitivity to cisplatin [2] | relation of survival to GM-CSF concentration (MTT) ([1]; 18 h culture) | protective effect when GM-CSF addition is delayed 20 h post isolation ([1]; GM-CSF 50U/ml, 24 h cultures) | expression of catalase [3, 4] | expression of ferritin [3, 4] | expression of mitochondrial superoxide dismutase [3, 4] | transcription of fructose 1,6 bisphosphatase ([3]; GM-CSF, 6 hour period) | transcription of phosphofructokinase 1 ([3]; GM-CSF, 6 hour period) |
| --- | --- | --- | --- | --- | --- | --- | --- | --- | --- |
| CCCCS(=N)(=O)CCC(N)C(=O)O (stereo not shown) [BSO, buthionine sulphoximine] | did not impact on GM-CSF to mediate survival | increase the sensitivity; also recorded: dramatically sensitises HeLa cell towards cisplatin |  |  |  |  |  |  |  |
| CC(=O)N[C@@H](CS)C(=O)O [NAC] |  | decreased; also recorded: desensitised towards cisplatin |  |  |  |  |  |  |  |
| GM-CSF: well-characterised neutrophil growth/survival factor (cytokine) |  |  | direct correlation between survival and concentrations of GM-CSF | zero and not sufficient to mediate survival | increased expression | increased expression | increased expression | upregulates | down regulated |
